# Laboratory results reported in patent publication US10684290B2, “LKB1 related diagnostics and treatments of cancer” (Dignity Health, priority 2014, dated 2020).
# Experiments:
# H838-KDLKB1 cells = test: Clonogenic survival of H838-LKB1 and H838-KDLKB1 cells; type: cell-based, human; details: 24 h; 2DG 10 mM, Tm 1.25 μg/ml, BFA 30 ng/ml
# Method: (§1) Clonogenic survival assay were performed in 6 well dishes. Briefly, 200 of indicated cells were plated per well and allowed to attach overnight. Were indicated cells were pre-treated with 125 ng/ml of cyclohexamide (CHX) for one hour. Indicated drugs were diluted fresh into media and cells were treated for 24 h, at which time the drug containing media was removed and replaced with fresh media. After 14 days, cells were fixed in 10% Methanol/10% Acetic Acid and stained with 0.5% crystal violet. After washing in ddH2O, plates were allowed to dry and colonies of 50 cells or more were counted. The surviving fraction was calculated according to methods described by Franken et al. [Clonogenic assay of cells in vitro, NAT. PROT. 1 (5) (2006) 2315-2319].
# [1] = Chronic dosing tolerability in vivo
# [2] = tested on: A427-KDLKB1 and A427-LKB1 cells; test: ATP measurement/cell viability (CellTiter-Glo), A427; type: cell-based, human; details: 48 h; 2DG 10 mM, Tm 1.25 μg/ml, BFA 30 ng/ml; p<0.005
# Method: (§2) 500 H838 or A427 cells stably expressing either LKB1 or KDLKB1 were plated in 96 well plates. The following day, cells were dosed with the indicated treatments for 48 h. Cellular ATP levels were assessed using the CellTiter-Glo Luminescent Cell Viability Assay substrate (Promega) according to manufacturer's instructions. Luminescence was read using the DTX 880 Multimode Detector. Cellular ATP/cell viability was calculated relative to vehicle treated control.
# [3] = tested on: BiP/GRP78 in KRas/LKB1^wt and KRas/LKB1^null NSCLC tumors; test: Immunohistochemical staining of BiP in NSCLC tumors of treated mice; type: in vivo; details: 500 mg/kg twice a day for two days
# Method: KRas^G12D/LKB1^lox/lox (KRas/LKB1^null) were generated by selective breeding of Lox-Stop-Lox KRas^G12D mice, purchased from Jackson Laboratories (Bar-Harbor, Me.), with LKB1^lox/lox mice obtained from Mouse Repository at the NCI and were inbred on a FVB background. KRas^G12D/LKB1^wt/wt (KRas/LKB1^wt) mice were generated by backcrossing Lox-Stop-Lox KRas^G12D onto a FVB background. Induction of lung tumors was performed. Briefly, six-week-old KRas/LKB1^null and KRas/LKB1^wt mice were transiently infected with 5×10^6 p.f.u. of Cre adenovirus (University of Iowa adenoviral core) via intranasal infection. At ˜6 weeks (KRas/LKB1^null) or ˜10 weeks (KRas/LKB1^wt) post-infection, mice underwent a baseline MRI scan to determine the baseline tumor burden. Mice with identified disease were randomized for daily treatment with either vehicle (PBS) or 500 mg/kg 2DG for three weeks, at which time mice received a follow-up MRI scan, sacrificed and the presence of disease confirmed by gross assessment and histology. For data generated in FIG. 2, KRas/LKB1^null and KRas/LKB1^wt mice with MRI positive tumors were treated either with 2DG (500 mg/kg) or vehicle (PBS) twice a day for two days before sacrifice and necropsy of tumor tissue. […]
# [4] = tested on: H838-KDLKB1 and H838-LKB1 cells; test: ATP measurement/cell viability (CellTiter-Glo), H838; type: cell-based, human; details: 48 h; 2DG 10 mM, Tm 1.25 μg/ml, BFA 30 ng/ml; p<0.005
# Method: as §2
# [5] = tested on: H838-KDLKB1 and H838-LKB1 cells; test: Immunoblot of ER stress markers in H838-LKB1 and H838-KDLKB1 cells; type: cell-based, human; details: 12 h; 2DG 10 mM, Tm 1.25 ug/ml, BFA 30 ng/ml
# Method: (§3) Cells were washed once with ice-cold PBS and incubated on ice for 30 min with a lysis buffer containing 10 mM Tris-HCl, 150 mM NaCl, 0.1% SDS and 1% IGEPAL (Sigma) to which a protease inhibitor cocktail (Sigma) and two phosphatase cocktails I and II (Sigma) were added immediately before use. Lysates were transferred to tubes and insoluble material was pelleted by centrifugation. For immunoblotting, 50-100 μg of total protein lysates were separated by SDS-PAGE and transferred to nitrocellulose. Blots were blocked in 5% milk/Tris buffered saline/0.1% TWEEN® 20 (polyoxyethylenesorbitan monolaurate) (TBST) and primary antibodies were diluted in 5% Bovine Serum Albumin (Sigma)/TBST and incubated overnight at 4° C. Blots were developed with ECL plus (GE) and visualized on a Kodak Image station.
# [6] = tested on: H838-KDLKB1 and H838-LKB1 cells; test: Flow cytometry of ROS levels (CellROX staining); type: cell-based, human; details: CellROX FACS, 12 h; 2DG 10 mM, Tm 1.25 μg/ml, BFA 30 ng/ml; baseline difference 1.4-fold
# Method: To analyze levels of reactive oxygen species (ROS), 1×10^6 H838-KDLKB1 and H838-LKB1 cells were plated and treated with the indicated drugs. Cells were then stained with 0.5 1M CellRox™ for 30 min at 37° C., collected by trypsinization and washed with PBS. Following fixation with 2% Paraformaldehyde/PBS for 20 min, cells were brought to a final volume of 500 ll in PBS. CellRox™ staining of ROS was assessed using the Accuri C6 Flow Cytometer (BD Biosciences, San Jose, Calif., USA) with the threshold set at 80,000. A total of 30,000 events were collected per sample and ROS staining intensity determined using FCS Express 4 Flow Cytometer software. Background events were gated out using unstained control. Histogram plots were overlaid and histogram subtraction was performed by subtracting the integral of the stained control from the treated sample.
# [7] = tested on: KRas/LKB1^wt and KRas/LKB1^null NSCLC tumors; test: Murine transgenic models of KRas and KRas/LKB1 null NSCLC, MRI tumor volume; type: in vivo, mice
# Method: KRas^G12D/LKB1^lox/lox (KRas/LKB1^null) were generated by selective breeding of Lox-Stop-Lox KRas^G12D mice, purchased from Jackson Laboratories (Bar-Harbor, Me.), with LKB1^lox/lox mice obtained from Mouse Repository at the NCI and were inbred on a FVB background. KRas^G12D/LKB1^wt/wt (KRas/LKB1^wt) mice were generated by backcrossing Lox-Stop-Lox KRas^G12D onto a FVB background. Induction of lung tumors was performed. Briefly, six-week-old KRas/LKB1^null and KRas/LKB1^wt mice were transiently infected with 5×10^6 p.f.u. of Cre adenovirus (University of Iowa adenoviral core) via intranasal infection. At ˜6 weeks (KRas/LKB1^null) or ˜10 weeks (KRas/LKB1^wt) post-infection, mice underwent a baseline MRI scan to determine the baseline tumor burden. Mice with identified disease were randomized for daily treatment with either vehicle (PBS) or 500 mg/kg 2DG for three weeks, at which time mice received a follow-up MRI scan, sacrificed and the presence of disease confirmed by gross assessment and histology. For data generated in FIG. 2, KRas/LKB1^null and KRas/LKB1^wt mice with MRI positive tumors were treated either with 2DG (500 mg/kg) or vehicle (PBS) twice a day for two days before sacrifice and necropsy of tumor tissue. Mice received daily checks to monitor for clinical signs of disease (labored breathing, weight loss) and all procedures were under a protocol approved by the St. Joseph's Hospital and Medical Center IACUC committee.
# All the scans were performed using a 7T small animal, 30-cm horizontal-bore magnet and BioSpec Advance III spectrometer (Bruker, Billerica, Mass.) with a 72 mm quadrature volume coil. Each animal was induced and maintained under isoflurane anesthesia, 3.0% and 1.5%, respectively, and delivered with 1.5 L/min of 100% oxygen. During MRI scans, the animal's respiration was continually monitored by a small animal monitoring and gating system (SA Instruments, Stoney Brook, N.Y.) via a pillow sensor positioned on top of the abdomen. Mice were placed on a heated animal bed system (Bruker, Billerica, Mass.) and the normal body temperature (36-37° C.) was maintained. For MR imaging, a Fast Low Angle Shot (FLASH) sequence (TR/TE=40 ms/2 ms; FOV=60 mm×60 mm; Average=2; matrix=256×256; Flip Angle=30°) was used to acquire initial scout images, which were used for locating the lung region for subsequent images. Then T1 weighted images were obtained with the Fast Imaging with Steady State Precession (FISP) sequence (TR/TE 5.262 ms/2.0 ms; 8 segments; FOV=30 mm×30 mm; matrix=256×256; slice thickness=1.0 mm; Flip angle, 20°; 22 averages; total acquisition time=17 min). […] Change in tumor volumes was determined by comparison of baseline tumor volume to tumor volume following three weeks of treatment.
# [8] = tested on: LKB1 expressing and LKB1 null LA/NSCLC cell lines; test: Immunoblot of pAMPK and cleaved PARP in LKB1 expressing and LKB1 null cell lines; type: cell-based, human; details: 20 mM
# Method: (§4) Cells were incubated on ice for 30 minutes with a lysis buffer containing 10 mM Tris-HCL, 150 mM NaCl, 0.1% SDS and 1% IGEPAL (Sigma). Immediately before use, a protease inhibitor cocktail (Sigma) and two phosphatase cocktails I and II (Sigma) were added to the lysis buffer. Lysates were transferred to tubes and insoluble material was pelleted by centrifugation. Nuclear protein fractions were isolated using a NE-PER protein extraction kit (ThermoFisher) according to manufacturer's instructions. Protein concentration was determined using the Bio-Rad DC protein kit. For immunoblotting, 50-100 ug of total protein lysates was separated by SDS-PAGE and transferred to nitrocellulose. Blots were blocked in 5% milk/Tris buffered saline/0.1% TWEEN® 20 (polyoxyethylenesorbitan monolaurate) (TBST) and primary antibodies were diluted in 5% Bovine Serum Albumin (Sigma)/TBST and incubated overnight at 4° C. Blots were developed with ECL plus (GE) and visualized on a Kodak Image station.
# Cells were washed once with ice-cold PBS and incubated on ice for 30 min with a lysis buffer containing 10 mM Tris-HCl, 150 mM NaCl, 0.1% SDS and 1% IGEPAL (Sigma) to which a protease inhibitor cocktail (Sigma) and two phosphatase cocktails I and II (Sigma) were added immediately before use. Lysates were transferred to tubes and insoluble material was pelleted by centrifugation. […]
# [9] = tested on: H23-KDLKB1 and H23-LKB1 cells; test: Clonogenic survival of H23-LKB1 and H23-KDLKB1 cells; type: cell-based, human; details: 24 h treatment, colonies after 14 days
# Method: as §1, with “300-500” for “200 of indicated”, “Drugs” for “Were indicated cells were pre-treated with 125 ng/ml of cyclohexamide (CHX) for one hour. Indicated drugs”, “hours. Drug” for “h, at which time the drug”, “Franken,” for “Franken”, “al.” for “al. [Clonogenic assay of cells in vitro, NAT. PROT. 1 (5) (2006) 2315-2319].”
# as §1
# [10] = tested on: H23-KDLKB1 and H23-LKB1 NSCLC cells; test: Immunoblot of BiP and CHOP in H23-LKB1 and H23-KDLKB1 cells; type: cell-based, human; details: 18 h; or bortezomib (40 nM)
# Method: as §3
# AMPK, H2009 LA cells = test: Immunoblot of BiP and CHOP in H2009 cells with AMPK inhibitor before 2DG; type: cell-based, human; parameters: dose or concentration left out as unconfirmed; details: H2009 cells treated with Compound C
# Method: as §4
# [11] = KRas/LKB1^null mice, data not shown
smiles,measurement,setting,value
"O=CC[C@@H](O)[C@H](O)[C@H](O)CO [2DG, 2-deoxy-D-glucose]",Clonogenic cell survival of H838-KDLKB1 cells,H838-KDLKB1 cells,reduced cell survival
same,Tolerability of chronic dosing,[1],poorly tolerated
same,Cellular ATP in A427-KDLKB1 compared to A427 re-expressing LKB1,[2],reduced ATP
same,BiP protein levels in NSCLC tumor cells of KRas/LKB1^wt mice (IHC),[3],significant increase in BiP protein levels
same,Cellular ATP in H838-KDLKB1 compared to H838 re-expressing LKB1,[4],reduced ATP
same,Phosphorylated eIF2a in H838-KDLKB1 compared to H838-LKB1 cells,[5],increased levels of phosphorylated eIF2a
same,"ROS levels in H838-KDLKB1, increase in intensity over H838-LKB1",[6],2 fold
same,Growth of NSCLC tumors (change in tumor volume by MRI) compared to vehicle,"[7]; 500 mg/kg daily, three weeks, KRas/LKB1 wt and KRas/LKB1^null mice",reduced the growth of NSCLC tumors
same,Response of KRas/LKB1^null tumors compared to KRas/LKB1^wt tumors,"[7]; 500 mg/kg daily, three weeks, p=0.0032",statistically greater response
same,"Effects upon metastasis, gross assessment at necropsy",[7]; [11],did not observe any effects upon metastasis
same,Survival of mice in longer term studies,[7]; [11],no statistical impact upon survival
same,Phosphorylation of AMPK in LKB1 expressing H2009 cells (not in LKB1-deficient H23 cells),[8],resulted in phosphorylation of AMPK
same,"Cleavage of PARP (apoptosis) in LKB1 null LA cells (H2126, H838, H1395)",[8]; 12 and 18 hours,increased cleavage of poly(ADP-ribose) polymerase (PARP)
CC(C)C[C@H](NC(=O)[C@H](Cc1ccccc1)NC(=O)c1cnccn1)B(O)O [bortezomib],Clonogenic survival / cytotoxicity in H23-KDLKB1 compared to H23-LKB1,[9],reduced the survival of H23-KDLKB1 cells in a dose dependent manner
same,BiP expression in H23-KDLKB1 compared to H23 cells with reconstituted LKB1,[10],9 fold decrease
same,CHOP expression in H23-KDLKB1 compared to H23 cells with reconstituted LKB1,[10],1.6 fold decrease
c1cc(-c2cnn3cc(-c4ccc(OCCN5CCCCC5)cc4)cnc23)ccn1 [compound C],Expression of BiP and CHOP in response to 2DG,"AMPK, H2009 LA cells",prevented expression of both BiP and CHOP
